For data set [1] the following is noted: 298.15 K; 101.33 kPa; Liquid; Vibrating tube method.
A short description of data set [2]: refractive index (Na D-line) (dimensionless). The conditions noted are these: 298.15 K; 101.33 kPa; Liquid; Standard Abbe refractometry.

Data on five compounds can be found in the NIST ThermoML archive (doi:10.1016/j.fluid.2011.10.017).

± gives the expanded uncertainty stated by the source.

As a reminder, the mass density is the mass of a sample divided by its volume. What is called refractive index is the speed of light in vacuum divided by its phase velocity in the sample. Consider `CCCCCC[n+]1ccc(C)cc1C.O=S(=O)([N-]S(=O)(=O)C(F)(F)F)C(F)(F)F`, for which the mass density in data set [1] is given as 1339.39 ± 1.6 kg/m3. Besides, in data set [2], the refractive index came out at 1.45336 ± 0.00052.
On to `c1ccncc1` [pyridine], for which the mass density in data set [1] came out at 978.24 ± 0.1 kg/m3. Besides, the refractive index in data set [2] is reported as 1.50636 ± 0.00035.
`CCCCCC` [hexane]: the mass density in data set [1] came out at 655.09 ± 0.26 kg/m3. Moreover, in data set [2], the refractive index was 1.37236 ± 0.00039.
For the compound `Cc1ccccc1` [toluene], the mass density in data set [1] is 862.18 ± 0.13 kg/m3. Further, the refractive index in data set [2] was 1.49367 ± 0.00035.
For `c1ccsc1` [thiophene], in that order: 1058.61 ± 0.12 kg/m3 and 1.52523 ± 0.00035.
